The subject of the test is T1, albachelin monooxygenase (AMO).
T1 construct: expressed in E. coli (pVP56K) as 8xHis-MBP fusion, tag removed with TEV protease; MW 49 kDa
Briefly: oxygen consumption (Oxygraph). The following applies: holo-AMO, 100 mM sodium phosphate pH 7.5. The test is classed as biochemical, Amycolatopsis alba. From the text: oxygen consumption (Oxygraph) on albachelin monooxygenase (AMO)

`NC(=O)C1=CN([C@@H]2O[C@H](COP(=O)(O)OP(=O)(O)OC[C@H]3O[C@@H](n4cnc5c(N)ncnc54)[C@H](O)[C@@H]3O)[C@@H](O)[C@H]2O)C=CC1` [NADH]: where the note is “10 mM Orn”, the Km – broadly, the substrate concentration at which the rate is half of its maximum – came to 320 ± 100 µM.
Regarding `NCCC[C@H](N)C(=O)O` [Orn], for the setting “5 mM NADPH”, the Km amounted to 305 ± 108 µM.
With `NC(=O)C1=CN([C@@H]2O[C@H](COP(=O)(O)OP(=O)(O)OC[C@H]3O[C@@H](n4cnc5c(N)ncnc54)[C@H](OP(=O)(O)O)[C@@H]3O)[C@@H](O)[C@H]2O)C=CC1` [NADPH], under “10 mM Orn”, the Michaelis constant (Km) was determined as 1400 ± 160 µM.

The values above are taken from PMC6151521, “Characterization of the Ornithine Hydroxylation Step in Albachelin Biosynthesis” (Molecules : A Journal of Synthetic Chemistry and Natural …, 2017).
